# Values joined by “and” are separate entries in the source; they are usually repeats but may differ in a detail not shown here. Equal entries are not always repeated.
# Columns and labels:
# A/Perth/16/2009 (H3N2) = type: cell-based, influenza A virus
# A/Alaska/140/2015 (H3N2) = type: cell-based, influenza A virus
# [1] = system: A/New Jersey/8/1976 (H1N1); type: cell-based, influenza A virus
# [2] = system: A/Hong Kong/156/1997 (H5N1); type: cell-based, influenza A virus
# [3] = system: panel of 20 influenza A viruses; type: cell-based, influenza A virus
# [4] = system: relapsed/refractory, locally advanced or metastatic solid tumors; conditions: preliminary clinical results, cited from earlier work
# A/USSR/90/1977 (H1N1) = type: cell-based, influenza A virus
# [5] = system: A/Solomon Islands/03/2006 (H1N1); type: cell-based, influenza A virus
# A/Texas/71/2007 (H3N2) = type: cell-based, influenza A virus
# [6] = system: A/Puerto Rico/8/1934 (H1N1); type: cell-based, influenza A virus
# A/Anhui/1/2013 (H7N9) = type: cell-based, influenza A virus
# in vitro [7] = conditions: human, % Dif (absorbance as percent relative to the vehicle control, relative viability)
# [8] = system: A/Minnesota/19/2011 (H1N1); type: cell-based, influenza A virus
# A/Hawaii/15/2001 (H1N1) = type: cell-based, influenza A virus
# MT-2 human T cell line = experiment: Cytotoxicity against uninfected MT-2 cells; type: cell-based; conditions: 1 µM, 48 hours
# [9] = system: Nipah virus (Malaysian strain); experiment: microbe, parasite or virus in culture; type: cell-based
# [10] = system: A/California/07/2009 (H1N1); type: cell-based, influenza A virus
# [11] = system: A/Vietnam/1203/2004 (H5N1); type: cell-based, influenza A virus
# in vitro [12] = conditions: human
# [13] = system: A/Indonesia/05/2005 (H5N1); type: cell-based, influenza A virus
# [14] = system: A/New Caledonia/20/1999 (H1N1); type: cell-based, influenza A virus
# A/Fujian/413/2002 (H3N2) = type: cell-based, influenza A virus
# [15] = system: A/California/02/2014 (H3N2); type: cell-based, influenza A virus
# NL4-3 WT HIV-1 virus = experiment: Infectious HIV-1 released by infected MT-2 cells (TZM-bl luciferase reporter); type: cell-based; conditions: 10 nM, 48 hours
# [16] = system: A549 human lung carcinoma cells; conditions: human
# [17] = system: A/Egypt/N6658/2011 (H5N1); type: cell-based, influenza A virus
# A/Indiana/08/2011 (H3N2) = type: cell-based, influenza A virus
compound,measurement,setting,value
"CC1=C(COCCC(C)(C)C)C(=O)N(Nc2ccc(C(F)(F)F)c(Cl)n2)C1=O [felezonexor, 3-[(3,3-dimethylbutoxy)methyl]-1-{[6-chloro-5-(trifluoromethyl) (2-pyridyl)]amino}-4-methylazoline-2,5-dione]","Virus titer, replicates 1-3",A/Perth/16/2009 (H3N2),2.25 log10TCID50/mL and 3.50 log10TCID50/mL (2×) and 4.75 log10TCID50/mL and 1.50 log10TCID50/mL and 4.25 log10TCID50/mL (2×) and 2.50 log10TCID50/mL and 3.25 log10TCID50/mL
same,"Virus titer, replicates 1-3",A/Alaska/140/2015 (H3N2),1.50 log10TCID50/mL (4×) and 6.50 log10TCID50/mL and 2.50 log10TCID50/mL and 7.00 log10TCID50/mL and 2.25 log10TCID50/mL and 6.25 log10TCID50/mL
same,reduction in viral titers,A/Alaska/140/2015 (H3N2),greater than 1.0 log10TCID50/mL
same,Virus titer AVG,[1],3.67 log10TCID50/mL and 4.00 log10TCID50/mL and 4.17 log10TCID50/mL
same,"Virus titer, replicates 1-3",[1],3.75 log10TCID50/mL (3×) and 3.50 log10TCID50/mL (2×) and 4.25 log10TCID50/mL (3×) and 4.50 log10TCID50/mL
same,reduction in viral titers,[1],greater than 1.0 log10TCID50/mL
same,Virus titer AVG,[2],2.42 log10TCID50/mL and 3.58 log10TCID50/mL and 4.50 log10TCID50/mL
same,"Virus titer, replicates 1-3",[2],2.25 log10TCID50/mL (2×) and 3.50 log10TCID50/mL (2×) and 4.25 log10TCID50/mL and 2.75 log10TCID50/mL and 4.75 log10TCID50/mL and 3.75 log10TCID50/mL and 4.50 log10TCID50/mL
same,reduction in viral titers,[2],greater than 1.0 log10TCID50/mL
same,strains with viral titers reduced at least 3-fold compared to untreated controls,[3],17 out of 20 strains
same,strains with viral titers reduced at least 10-fold compared to untreated controls,[3],13 out of 20 strains
same,Safety and tolerability,[4]; 57 patients with solid tumors,manageable
same,most common treatment related adverse events,[4]; 57 patients with solid tumors,"gastrointestinal (nausea, vomiting, and diarrhea) and constitutional (fatigue, decreased appetite)"
same,antitumor activity,"[4]; 57 patients, heavily pre-treated solid tumors","durable responses, including a partial response"
same,"Virus titer, replicates 1-3",A/USSR/90/1977 (H1N1),1.50 log10TCID50/mL (3×) and 5.25 log10TCID50/mL and 5.75 log10TCID50/mL (3×) and 4.25 log10TCID50/mL (2×)
same,reduction in viral titers,A/USSR/90/1977 (H1N1),greater than 1.0 log10TCID50/mL
same,Virus titer AVG,[5],6.00 log10TCID50/mL and 7.17 log10TCID50/mL and 7.79 log10TCID50/mL
same,"Virus titer, replicates 1-3",[5],6.50 log10TCID50/mL and 6.75 log10TCID50/mL and 7.38 log10TCID50/mL and 5.75 log10TCID50/mL (2×) and 7.50 log10TCID50/mL (2×) and 8.50 log10TCID50/mL and 7.25 log10TCID50/mL
same,Virus titer AVG,A/Texas/71/2007 (H3N2),2.50 log10TCID50/mL and 3.33 log10TCID50/mL and 3.92 log10TCID50/mL
same,"Virus titer, replicates 1-3",A/Texas/71/2007 (H3N2),3.25 log10TCID50/mL (2×) and 4.00 log10TCID50/mL and 3.75 log10TCID50/mL (2×) and 2.75 log10TCID50/mL (2×) and 1.50 log10TCID50/mL and 4.25 log10TCID50/mL
same,reduction in viral titers,A/Texas/71/2007 (H3N2),greater than 1.0 log10TCID50/mL
same,Virus titer AVG,[6],3.42 log10TCID50/mL and 4.92 log10TCID50/mL
same,"Virus titer, replicates 1-3",[6],3.50 log10TCID50/mL (2×) and 3.25 log10TCID50/mL (3×) and 4.75 log10TCID50/mL and 4.50 log10TCID50/mL and 3.75 log10TCID50/mL and 5.50 log10TCID50/mL
same,reduction in viral titers,[6],greater than 1.0 log10TCID50/mL
same,Virus titer AVG,A/Anhui/1/2013 (H7N9),1.50 log10TCID50/mL and 2.50 log10TCID50/mL and 2.67 log10TCID50/mL
same,"Virus titer, replicates 1-3",A/Anhui/1/2013 (H7N9),1.50 log10TCID50/mL (3×) and 2.25 log10TCID50/mL and 2.75 log10TCID50/mL (3×) and 2.50 log10TCID50/mL (2×)
same,reduction in viral titers,A/Anhui/1/2013 (H7N9),greater than 1.0 log10TCID50/mL
same,viability at 0.05 µM,in vitro [7],101%
same,viability at 0.1 µM,in vitro [7],125%
same,viability at 0.25 µM,in vitro [7],66.2%
same,viability at 0.5 µM,in vitro [7],71.6%
same,viability at 1 µM,in vitro [7],58.7%
same,"Virus titer, replicates 1-3",[8],2.50 log10TCID50/mL and 6.75 log10TCID50/mL (2×) and 7.25 log10TCID50/mL (2×) and 3.25 log10TCID50/mL and 8.50 log10TCID50/mL and 2.75 log10TCID50/mL and 9.25 log10TCID50/mL
same,reduction in viral titers,[8],greater than 1.0 log10TCID50/mL
same,Virus titer AVG,A/Hawaii/15/2001 (H1N1),2.67 log10TCID50/mL and 3.67 log10TCID50/mL and 4.83 log10TCID50/mL
same,"Virus titer, replicates 1-3",A/Hawaii/15/2001 (H1N1),2.50 log10TCID50/mL and 3.75 log10TCID50/mL (2×) and 4.75 log10TCID50/mL (2×) and 2.75 log10TCID50/mL (2×) and 3.50 log10TCID50/mL and 5.00 log10TCID50/mL
same,MT-2 cells killed,MT-2 human T cell line,about 50%
same,"selectivity index (SI, CC50/EC50)",[9],12
same,EC50,"[9]; Henipavirus nipahense, HeLa, 48 h, read-out: EC50 (compound concentration that reduces viral replication by 50%)",0.02 µM
same,Virus titer AVG,[10],2.75 log10TCID50/mL and 4.42 log10TCID50/mL and 5.42 log10TCID50/mL
same,"Virus titer, replicates 1-3",[10],3.25 log10TCID50/mL and 4.25 log10TCID50/mL and 5.50 log10TCID50/mL and 2.50 log10TCID50/mL (2×) and 4.50 log10TCID50/mL (2×) and 5.75 log10TCID50/mL and 5.00 log10TCID50/mL
same,reduction in viral titers,[10],greater than 1.0 log10TCID50/mL
same,Virus titer AVG,[11],6.58 log10TCID50/mL and 8.50 log10TCID50/mL and 8.17 log10TCID50/mL
same,"Virus titer, replicates 1-3",[11],6.50 log10TCID50/mL (2×) and 8.25 log10TCID50/mL (2×) and 8.50 log10TCID50/mL and 6.75 log10TCID50/mL and 7.75 log10TCID50/mL (2×) and 9.50 log10TCID50/mL
same,reduction in viral titers,[11],greater than 1.0 log10TCID50/mL
same,CC50,in vitro [12],0.24 µM
same,Virus titer AVG,[13],4.83 log10TCID50/mL and 6.92 log10TCID50/mL and 7.58 log10TCID50/mL
same,"Virus titer, replicates 1-3",[13],4.50 log10TCID50/mL and 6.50 log10TCID50/mL and 7.50 log10TCID50/mL (3×) and 5.25 log10TCID50/mL and 6.75 log10TCID50/mL and 4.75 log10TCID50/mL and 7.75 log10TCID50/mL
same,reduction in viral titers,[13],greater than 1.0 log10TCID50/mL
same,Virus titer AVG,[14],7.17 log10TCID50/mL and 6.83 log10TCID50/mL and 7.00 log10TCID50/mL
same,"Virus titer, replicates 1-3",[14],6.75 log10TCID50/mL (2×) and 7.25 log10TCID50/mL (2×) and 8.00 log10TCID50/mL and 6.50 log10TCID50/mL (3×) and 7.50 log10TCID50/mL
same,reduction in viral titers,[14],no reduction in viral titers
same,Virus titer AVG,A/Fujian/413/2002 (H3N2),3.25 log10TCID50/mL and 3.50 log10TCID50/mL
same,"Virus titer, replicates 1-3",A/Fujian/413/2002 (H3N2),3.00 log10TCID50/mL and 3.25 log10TCID50/mL (3×) and 3.50 log10TCID50/mL (2×) and 3.75 log10TCID50/mL (2×) and 2.75 log10TCID50/mL
same,reduction in viral titers,A/Fujian/413/2002 (H3N2),no reduction in viral titers
same,"Virus titer, replicates 1-3",[15],1.50 log10TCID50/mL (3×) and 5.25 log10TCID50/mL and 6.50 log10TCID50/mL (2×) and 4.75 log10TCID50/mL and 7.75 log10TCID50/mL and 4.50 log10TCID50/mL
same,reduction in viral titers,[15],greater than 1.0 log10TCID50/mL
same,reduction of the production of infectious virus,NL4-3 WT HIV-1 virus,more than 50%
same,tolerated concentration (relative viability equivalent or greater than untreated controls),[16],up to 100 nM
same,"% Dif (absorbance as percent relative to the vehicle control, relative viability)",[16]; 0.5 µM,71.6%
same,Virus titer AVG,[17],4.08 log10TCID50/mL and 4.33 log10TCID50/mL and 4.92 log10TCID50/mL
same,"Virus titer, replicates 1-3",[17],4.00 log10TCID50/mL and 4.25 log10TCID50/mL (2×) and 5.50 log10TCID50/mL and 4.50 log10TCID50/mL (3×) and 3.75 log10TCID50/mL and 4.75 log10TCID50/mL
same,reduction in viral titers,[17],greater than 1.0 log10TCID50/mL
same,"Virus titer, replicates 1-3",A/Indiana/08/2011 (H3N2),3.25 log10TCID50/mL (2×) and 5.50 log10TCID50/mL (2×) and 6.75 log10TCID50/mL and 6.50 log10TCID50/mL and 7.50 log10TCID50/mL and 2.75 log10TCID50/mL and 8.50 log10TCID50/mL
same,reduction in viral titers,A/Indiana/08/2011 (H3N2),greater than 1.0 log10TCID50/mL

# — patent US20230158005A1 (priority 2020, published 2023)
